ChEMBL document CHEMBL5376009 (RSC Med Chem, 2024)

Legend:
[1] = Cytotoxicity against MDCK cells; assay type: toxicity, cell-based, Canis lupus familiaris; conditions: dog
Influenza A virus [2] = test: Antiviral activity against Influenza A virus A (H1N1); assay type: functional, organism-based
HEK-293T = test: Cytotoxicity against human HEK293T cells by MTS assay; assay type: functional
Influenza A virus [3] = test: Antiviral activity against influenza A virus A/Aichi/2/68 (H3N2) infected in MDCK cells by plaque assay; assay type: functional, organism-based
[4] = Cytotoxicity against MDCK cells by MTS assay; assay type: toxicity, cell-based, Canis lupus familiaris; conditions: dog
Influenza A virus [5] = test: Antiviral activity against influenza A virus A/Guangdong/1/2009 (H1N1) infected in MDCK cells by plaque assay; assay type: functional, organism-based
Influenza A virus [6] = test: Antiviral activity against influenza A virus A/PR/8/34 (H1N1) infected in MDCK cells by plaque assay; assay type: functional, organism-based
A549 [7] = test: Cytotoxicity against human A549 cells by MTS assay; assay type: functional
Influenza A virus [8] = test: Antiviral activity against influenza A H5N1 infected in MDCK cells assessed as viral growth inhibition measured for 12 to 72 hrs; assay type: functional, organism-based
[9] = Cytotoxicity against MDCK cells incubated for 72 hrs by CCK-8 assay; assay type: toxicity, cell-based, Canis lupus familiaris; conditions: dog
Influenza A virus [10] = test: Antiviral activity against Influenza A virus A/California/04/2009 (H1N1) infected in MDCK cells pretreated with cell for 30 mins followed by viral infection and measured for 72 hrs by luminescence based assay; assay type: functional, organism-based
[11] = Selectivity index, ratio of IC50 for cytotoxicity against MDCK cells to EC50 for antiviral activity Influenza A virus A/Vietnam/1203/2004 (H5N1) infected in MDCK cells; assay type: toxicity, cell-based; conditions: dog, read-out: Selectivity Index
Influenza A virus [12] = test: Antiviral activity against Influenza A virus A/Vietnam/1203/2004 (H5N1) infected in MDCK cells pretreated with cell for 30 mins followed by viral infection and measured for 72 hrs by luminescence based assay; assay type: functional, organism-based
[13] = Selectivity index, ratio of IC50 for cytotoxicity against MDCK cells to EC50 for antiviral activity Influenza A virus A/California/04/2009 (H1N1) infected in MDCK cells; assay type: toxicity, cell-based; conditions: dog, read-out: Selectivity Index
Influenza A virus [14] = test: Antiviral activity against influenza A virus A/Brisbane/59/2009 (H1N1) infected in MDCK cells assessed as reduction in cytopathic effect by fluorescence based analysis; assay type: functional, organism-based
[15] = Cytotoxicity against HEK293T cells assessed as reduction in cell viability measured after 48 hrs by Cell-Titer Glo assay; assay type: toxicity, cell-based, HEK-293T; conditions: human
Influenza A virus [16] = test: Antiviral activity against influenza A virus H5N1 (RG14) infected in MDCK cells assessed as reduction in cytopathic effect by fluorescence based analysis; assay type: functional, organism-based
Influenza A virus [17] = test: Antiviral activity against influenza A virus A/Udorn/1972 (H3N2) infected in MDCK cells assessed as reduction in cytopathic effect by DAPI staining based analysis; assay type: functional, organism-based
Influenza A virus [18] = test: Antiviral activity against influenza A virus A/California/07/2009 (H1N1) infected in MDCK cells assessed as reduction in cytopathic effect by DAPI staining based analysis; assay type: functional, organism-based
Influenza A virus [19] = test: Antiviral activity against influenza A virus A/California/07/2009 (H1N1) infected in MDCK cells assessed as reduction in cytopathic effect by fluorescence based analysis; assay type: functional, organism-based
[20] = Cytotoxicity against HEK293T cells incubated for 48 hrs by Cell Titer-Glo assay; assay type: toxicity, cell-based, HEK-293T; conditions: human
Influenza A virus [21] = test: Antiviral activity against influenza A virus A/Udorn/1972 (H3N2) infected in MDCK cells assessed as reduction in cytopathic effect by fluorescence based analysis; assay type: functional, organism-based
Influenza A virus [22] = test: Antiviral activity against influenza A virus H5N1 (RG14) infected in MDCK cells assessed as reduction in cytopathic effect by DAPI staining based analysis; assay type: functional, organism-based
Neuraminidase = Neuraminidase (Influenza A virus, UniProt B4URF0); test: Inhibition of influenza A virus neuraminidase
Influenza A virus [23] = test: Antiviral activity against influenza A virus A/Brisbane/59/2009 (H1N1) infected in MDCK cells assessed as reduction in cytopathic effect by DAPI staining based analysis; assay type: functional, organism-based
[24] = Cytotoxicity against MDCK cells assessed as reduction in cell viability measured after 72 hrs by CCK8 assay; assay type: toxicity, cell-based, Canis lupus familiaris; conditions: dog
Influenza A virus [25] = test: Antiviral activity against influenza A virus A/Anhui/1/2005 (H5N1) infected in MDCK cells assessed as reduction in cytopathic effect incubated for 72 hrs by CPE assay; assay type: functional, organism-based
Hepatitis C virus = test: Antiviral activity against Hepatitis C virus infected in human Huh7.5 cells pretreated with cell for 2 hrs followed by viral infection for 1 hrs by plaque assay; assay type: functional, organism-based, Hepacivirus hominis
A549 [26] = test: Cytotoxicity against human A549 cells incubated for 48 hrs by cell Titer-Glo assay; assay type: functional
Influenza A virus [27] = test: Antiviral activity against Influenza A virus A/Panama/2007/99 (H3N2) infected in human A549 cells pretreated with cell for 2 hrs followed by viral infection for 1 hrs by plaque assay; assay type: functional, organism-based
Influenza A virus [28] = test: Antiviral activity against Influenza A virus A/WSN/33 (H1N1) infected in human A549 cells pretreated with cell for 2 hrs followed by viral infection for 1 hrs by plaque assay; assay type: functional, organism-based
rhinovirus B14 = test: Antiviral activity against Human rhinovirus 14 infected in human HeLa Ohio cells pretreated with cell for 2 hrs followed by viral infection for 1 hrs by plaque assay; assay type: functional, organism-based; conditions: Rhinovirus B
Influenza A virus [29] = test: Antiviral activity against Influenza A virus A/Vietnam/1203/04 (H5N1) HALo infected in human A549 cells pretreated with cell for 2 hrs followed by viral infection for 1 hrs by plaque assay; assay type: functional, organism-based
[30] = biological target: Phosphatidylinositol 4-phosphate 3-kinase C2 domain-containing subunit beta (Homo sapiens, UniProt O00750); test: Inhibition of PIK3C2beta (unknown origin) by KINOMEscan method
Influenza A virus [31] = test: Antiviral activity against influenza A virus H1N1, A/PR/8/34; assay type: functional, organism-based
Influenza A virus [32] = test: Antiviral activity against influenza A virus H1N1, A/California/7/2009; assay type: functional, organism-based
Influenza A virus [33] = test: Antiviral activity against influenza A virus […], A/WSN/33; assay type: functional, organism-based
[34] = Cytotoxicity against MDCK cells assessed as reduction in cell viability; assay type: toxicity, cell-based, Canis lupus familiaris; conditions: dog
Influenza A virus [35] = test: Antiviral activity against influenza A virus A/WSN/1933 (H1N1) infected in MDCK cells assessed as reduction in cytopathic effect by fluorescence based analysis; assay type: functional, organism-based
[36] = Cytotoxicity against MDCK cells assessed as reduction in cell viability measured after 72 hrs by fluorescence based assay; assay type: toxicity, Canis lupus familiaris; conditions: dog
Influenza A virus [37] = test: Antiviral activity against influenza A virus H5N1,A/Vietnam/1194/2004 infected in MDCK cells assessed as reduction in plaque formation incubated for 72 hrs by crystal violet staining based analysis; assay type: functional, organism-based; conditions: H5N1,A/Vietnam/1194/2004, MDCK
[38] = Cytotoxicity against MDCK cells assessed as reduction in cell viability measured after 72 hrs by MTT assay; assay type: toxicity, cell-based, Canis lupus familiaris; conditions: dog
Influenza A virus [39] = test: Antiviral activity against influenza A virus H1N1,A/WSN/1933 infected in MDCK cells assessed as reduction in plaque formation incubated for 72 hrs by crystal violet staining based analysis; assay type: functional, organism-based; conditions: H1N1,A/WSN/1933, MDCK

Phosphatidylinositol 4-phosphate 3-kinase C2 domain-containing subunit beta, sequence (O00750 whole entry, the tested form may be a part): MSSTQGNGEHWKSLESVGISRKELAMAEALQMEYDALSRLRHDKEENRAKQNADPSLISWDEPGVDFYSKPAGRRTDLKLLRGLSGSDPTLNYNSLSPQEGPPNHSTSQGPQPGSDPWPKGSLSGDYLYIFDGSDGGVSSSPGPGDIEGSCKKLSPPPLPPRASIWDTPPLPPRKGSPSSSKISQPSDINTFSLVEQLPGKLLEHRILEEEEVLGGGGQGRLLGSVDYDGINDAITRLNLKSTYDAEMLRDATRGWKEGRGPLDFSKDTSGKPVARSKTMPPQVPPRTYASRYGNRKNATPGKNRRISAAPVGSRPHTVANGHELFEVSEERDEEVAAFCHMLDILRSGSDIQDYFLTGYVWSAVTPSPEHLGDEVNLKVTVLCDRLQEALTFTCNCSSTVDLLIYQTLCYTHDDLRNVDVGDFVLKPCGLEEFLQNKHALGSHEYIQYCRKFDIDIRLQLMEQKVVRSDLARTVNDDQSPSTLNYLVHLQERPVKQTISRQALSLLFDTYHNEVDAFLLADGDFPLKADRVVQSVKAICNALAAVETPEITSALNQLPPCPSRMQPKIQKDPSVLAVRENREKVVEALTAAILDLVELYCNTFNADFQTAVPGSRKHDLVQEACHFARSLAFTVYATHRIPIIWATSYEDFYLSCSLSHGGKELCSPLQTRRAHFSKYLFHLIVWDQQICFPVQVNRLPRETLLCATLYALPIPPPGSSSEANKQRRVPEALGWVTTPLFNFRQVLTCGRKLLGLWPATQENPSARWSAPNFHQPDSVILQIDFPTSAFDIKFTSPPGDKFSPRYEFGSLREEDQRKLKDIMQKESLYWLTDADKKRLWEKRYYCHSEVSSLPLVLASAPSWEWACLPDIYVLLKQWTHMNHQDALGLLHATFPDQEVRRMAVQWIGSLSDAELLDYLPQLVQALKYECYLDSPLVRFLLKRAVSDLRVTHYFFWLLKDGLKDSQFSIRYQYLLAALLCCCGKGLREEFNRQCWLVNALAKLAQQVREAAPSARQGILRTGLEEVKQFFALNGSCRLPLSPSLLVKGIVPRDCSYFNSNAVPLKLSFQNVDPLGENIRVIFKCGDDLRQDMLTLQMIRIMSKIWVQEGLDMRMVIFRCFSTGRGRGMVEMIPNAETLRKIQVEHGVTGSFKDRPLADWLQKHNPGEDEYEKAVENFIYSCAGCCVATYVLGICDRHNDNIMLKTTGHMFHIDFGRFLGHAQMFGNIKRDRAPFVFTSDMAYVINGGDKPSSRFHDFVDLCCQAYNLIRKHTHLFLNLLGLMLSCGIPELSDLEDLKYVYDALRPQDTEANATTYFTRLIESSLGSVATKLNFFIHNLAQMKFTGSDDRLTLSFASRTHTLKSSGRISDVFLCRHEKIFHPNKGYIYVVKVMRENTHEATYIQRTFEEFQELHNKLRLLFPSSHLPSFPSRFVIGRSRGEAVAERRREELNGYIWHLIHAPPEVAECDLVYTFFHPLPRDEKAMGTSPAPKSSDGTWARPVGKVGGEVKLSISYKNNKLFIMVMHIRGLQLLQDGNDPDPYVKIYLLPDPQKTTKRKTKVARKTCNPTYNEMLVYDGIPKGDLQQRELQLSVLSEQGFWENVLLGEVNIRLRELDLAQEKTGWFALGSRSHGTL
Neuraminidase, sequence (B4URF0 whole entry): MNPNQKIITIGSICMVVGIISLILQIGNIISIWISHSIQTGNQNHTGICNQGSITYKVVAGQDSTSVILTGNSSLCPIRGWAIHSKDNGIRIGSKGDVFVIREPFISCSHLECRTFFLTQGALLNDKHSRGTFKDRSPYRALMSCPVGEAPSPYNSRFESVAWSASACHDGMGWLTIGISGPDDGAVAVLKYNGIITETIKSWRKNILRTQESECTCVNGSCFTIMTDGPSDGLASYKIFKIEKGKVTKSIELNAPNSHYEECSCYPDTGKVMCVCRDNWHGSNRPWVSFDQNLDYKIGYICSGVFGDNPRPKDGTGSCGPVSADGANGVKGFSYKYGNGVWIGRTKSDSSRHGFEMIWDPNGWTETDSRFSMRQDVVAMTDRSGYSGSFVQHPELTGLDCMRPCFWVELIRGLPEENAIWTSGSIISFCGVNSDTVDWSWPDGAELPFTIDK

Work on `C=C1Cc2cc(C(F)(F)F)ccc2C(=O)NCC(C)(C)/C(=N/OC)CCCCOC1=O` yielded a CC50 [1] of 211 µM and an EC50 (Influenza A virus [2]) of 2300 nM.

Work on `O=C(NC1CCCCCC1)c1cc2c(s1)-c1ccsc1CC2` yielded a CC50 (HEK-293T) greater than 100 µM, an EC50 (Influenza A virus [3]) of 410 nM and a CC50 [4] greater than 100 µM. It also gave an EC50 (Influenza A virus [5]) of 1140 nM, an EC50 (Influenza A virus [6]) of 1030 nM and a CC50 (A549 [7]) greater than 100 µM.

`O[C@H]1[C@H]2c3cc4c(cc3CN3CCC(=C[C@@H]1O)[C@H]23)OCO4` [LYCORINE] showed an EC50 (Influenza A virus [8]) of less than 460 nM and a CC50 at 72 h [9] of 20.9 µM.

Work on `CC1CC2=C(NC(=O)NC2c2ccc(O)c(Br)c2)c2ccccc21` (stereo not given) yielded an EC50 (Influenza A virus [10]) of 98 nM, a selectivity ratio [11] greater than 1090 and an EC50 (Influenza A virus [12]) of 46 nM. It also gave a selectivity ratio [13] greater than 510.

`Cc1onc(-c2ccccc2Cl)c1C(=O)N1CCN(c2ccc([N+](=O)[O-])cc2Cl)CC1` showed an EC50 (Influenza A virus [14]) of 1200 nM, a CC50 at 48 h [15] greater than 100 µM and an EC50 (Influenza A virus [16]) of 320 nM. For the same molecule, the EC50 (Influenza A virus [17]) was 700 nM, the EC50 (Influenza A virus [18]) was 1200 nM and the EC50 (Influenza A virus [19]) was 4.2 µM. It also gave a CC50 at 48 h [20] greater than 100 µM, an EC50 (Influenza A virus [21]) of 700 nM and an EC50 (Influenza A virus [22]) of 320 nM. For the same molecule, the IC50 (Neuraminidase) was 100 nM and the EC50 (Influenza A virus [23]) was 1200 nM.

`CCCC(=O)c1c(O)c(CC2=C(O)C(C)(C)C(O)=C(C(C)=O)C2=O)c(O)c(Cc2c(O)c(CC3=C(O)C(C)(C)C(O)=C(C(C)=O)C3=O)c(O)c(C(=O)CCC)c2O)c1O` gave a CC50 at 72 h [24] greater than 400 µM and an EC50 (Influenza A virus [25]) of 16.6 µM.

Molecule `O=C(Cc1cccs1)Nc1cccc(-c2ccc3nnc(-c4cccnc4)n3n2)c1` has an EC50 (Hepatitis C virus) of 760 nM, a CC50 (A549 [26]) greater than 50 µM and an EC50 (Influenza A virus [27]) of 1220 nM. It also gave an EC50 (Influenza A virus [28]) of 2050 nM, an EC50 (rhinovirus B14) of 50 nM and an EC50 (Influenza A virus [29]) of 1770 nM. The EC50 [30] was 430 nM.

Molecule `CC(=O)c1cc(O)ccc1O[C@@H]1O[C@H](CO)[C@@H](O)[C@H](OC(=O)c2cc(O)c(O)c(O)c2)[C@H]1OC(=O)c1cc(O)c(O)c(O)c1` has an EC50 (Influenza A virus [31]) of 30.7 µM, an EC50 (Influenza A virus [32]) of 30.7 µM and an EC50 (Influenza A virus [33]) of 24.6 µM. It also gave a CC50 [34] greater than 1 mM.

`Cc1cccc(N2CCN(Cc3n[nH]c(=O)n3Cc3cccc(F)c3)CC2)c1C` showed an EC50 (Influenza A virus [35]) of 170 nM and a CC50 at 72 h [36] greater than 100 µM.

In the case of `CCCCN1Cc2ccccc2Oc2ccccc2S1(=O)=O`, the EC50 (Influenza A virus [35]) is reported as 380 nM and the CC50 at 72 h [36] is reported as greater than 100 µM.

`CCc1ccccc1N(CC(=O)Nc1cc(C)cc(C)c1)S(C)(=O)=O` gave an EC50 (Influenza A virus [37]) of 86 nM, a CC50 at 72 h [38] greater than 100 µM and an EC50 (Influenza A virus [39]) of 7 nM.
